Values quoted from earlier work, collected in patent US20120283223A1, “CEREBRAL NERVE CELL NEOGENESIS AGENT” (priority 2010, published 2012).

Tested on: cerebral nerve cells
Settings: in 3 to 4 weeks; Non-Patent Literature 1

Q: For `CNCCC(Oc1ccc(C(F)(F)F)cc1)c1ccccc1` (stereo not shown) [fluoxetine], which “number of cerebral nerve cells” value is on record?
A: Its value is “increases”.
